Source: article PMC9322071, “Computer-Aided Design and Synthesis of (Functionalized quinazoline)–(α-substituted coumarin)–arylsulfonate Conjugates against Chikungunya Virus” (International Journal of Molecular Sciences, 2022)
pEC50: −log10 of the molar value. Where two headings read alike, the source gives them in different places.

What was measured:
[1] = Lipophilicity by shake-flask method
[2] = system: CHIKV Indian Ocean strain 899; test: Anti-CHIKV CPE assay on Vero cells; details: for pEC50: Chikungunya virus, Vero; for SI: ratio of CC50 to EC50
[3] = Cytotoxicity assay (metabolic activity of compound-treated cells); details: African green monkey
[4] = system: CHIKV; parameters: method as in PMID 23275491; details: CHIKV inhibition; cited from earlier work
[5] = system: CHIKV isolate; details: CHIKV isolate replication; cited from earlier work
[6] = cited from earlier work
[7] = system: CHIKV; details: cited from earlier work

For `O=c1oc2cc(OS(=O)(=O)c3ccccc3)ccc2cc1CSc1nc(Nc2ccccc2)c2ccccc2n1` [Compound 2b, 2′-Oxo-3′-[([4-(phenylamino)quinazolin-2-yl]thio)methyl]-2H-chromen-7′-yl Benzenesulfonate], the logP [1] was 5.27, the pEC50 [2] was 5.42 and the “fold more potent than quinazolinone conjugate 10a” value ([2]; EC50 comparison 2b vs 10a) was 2.0 times. The “fold improvement of SI in comparison with 10a” value ([2]; SI comparison 2b vs 10a) was 3.68 times, the SI [2] was 18.8 and the CC50 [3] was 72.3 µM.

`O=c1oc2cc(OS(=O)(=O)c3ccccc3)ccc2cc1CSc1nc2ccccc2c(=O)[nH]1` [Compound 10a, 2′-Oxo-3′-([(4-oxo-3,4-dihydroquinazolin-2-yl)thio]methyl)-2H-chromen-7′-yl Benzenesulfonate] showed a logP [1] of 3.52, a pEC50 [2] of 5.11 and an SI [2] of 5.11. The CC50 [3] was 40.1 µM.

For `COc1ccc(S(=O)(=O)Oc2ccc3cc(CSc4nc5ccccc5c(=O)[nH]4)c(=O)oc3c2)cc1` [Compound 10b, 2′-Oxo-3′-([(4-oxo-3,4-dihydroquinazolin-2-yl)thio]methyl)-2H-chromen-7′-yl 4″-Methoxybenzenesulfonate], the logP [1] was 3.45 and the pEC50 [2] was under 3.73.

In the case of `O=c1oc2cc(OS(=O)(=O)c3ccc(F)cc3)ccc2cc1CSc1nc2ccccc2c(=O)[nH]1` [Compound 10c, 2′-Oxo-3′-([(4-oxo-3,4-dihydroquinazolin-2-yl)thio]methyl)-2H-chromen-7′-yl 4″-Fluorobenzenesulfonate], the logP [1] was 3.68, the pEC50 [2] was 5.19 and the “fold more potent against CHIKV than β-substituted isomer 11” value ([2]; EC50 comparison 10c vs 11) was ~ 3 times. The “fold improvement of SI in comparison with β-11” value ([2]; SI comparison 10c vs 11) was 5.7 times, the SI [2] was 9.24 and the CC50 [3] was 59.7 µM.

Molecule `O=c1oc2cc(OS(=O)(=O)c3ccc(Br)cc3)ccc2cc1CSc1nc2ccccc2c(=O)[nH]1` [Compound 10d, 2′-Oxo-3′-([(4-oxo-3,4-dihydroquinazolin-2-yl)thio]methyl)-2H-chromen-7′-yl 4″-Bromobenzenesulfonate] has a logP [1] of 3.94, a pEC50 [2] of 4.74 and an SI [2] of 3.40. It also gave a CC50 [3] of 62.6 µM.

With `O=c1oc2cc(OS(=O)(=O)c3ccccc3[N+](=O)[O-])ccc2cc1CSc1nc2ccccc2c(=O)[nH]1` [Compound 10e, 2′-Oxo-3′-([(4-oxo-3,4-dihydroquinazolin-2-yl)thio]methyl)-2H-chromen-7′-yl 2″-Nitrobenzenesulfonate] the logP [1] was 3.48, the pEC50 [2] was 4.90 and the SI [2] was 5.06. For the same molecule, the CC50 [3] was 64.3 µM.

`O=c1oc2cc(OS(=O)(=O)c3ccc([N+](=O)[O-])cc3)ccc2cc1CSc1nc2ccccc2c(=O)[nH]1` [Compound 10f, 2′-Oxo-3′-([(4-oxo-3,4-dihydroquinazolin-2-yl)thio]methyl)-2H-chromen-7′-yl 4″-Nitrobenzenesulfonate] gave a logP [1] of 3.43 and a pEC50 [2] of under 3.73.

In the case of `COC(=O)C[C@](O)(CCC(C)(C)O)C(=O)O[C@@H]1C(OC)=C[C@]23CCCN2CCc2cc4c(cc2[C@H]13)OCO4` [Harringtonine, harringtonine], the pEC50 [4] is listed as 6.62.

In the case of `Cc1ccc(C(=O)Nc2ccc(S(=O)(=O)O)c3cc(S(=O)(=O)O)cc(S(=O)(=O)O)c23)cc1NC(=O)c1cccc(NC(=O)Nc2cccc(C(=O)Nc3cc(C(=O)Nc4ccc(S(=O)(=O)O)c5cc(S(=O)(=O)O)cc(S(=O)(=O)O)c45)ccc3C)c2)c1` [Suramin], the pEC50 [5] is listed as about 4.10 and the CC50 [6] is listed as over 5000 µM.

In the case of `O=C(NN=Cc1ccccc1)C1CC1` [benzylidene(cyclopropane)carbohydrazide], the pEC50 ([7]; CHIKV-induced CPE) is given as 5.30 and the SI [7] is given as 14.
